Test [1] has as its system S. aureus ATCC 33592 (MRSA). As to the kind of experiment: Minimum inhibitory concentrations on agar plates (spotted serial dilutions). The format is cell-based, Staphylococcus aureus. As to conditions: S. aureus ATCC 33592 (MRSA) versus S. aureus SG511 (MSSA); serial dilutions in half-concentrated Müller-Hinton broth, 10 µl spotted on Müller Hinton agar lawn, overnight; lichenicidin as isopropanol wash extract. The procedure: (§1) For the comparison of the antibacterial efficacy of lichenicidin to other lantibiotics, Pep5 [52] and nisin [53] were purified as described previously, and mersacidin was obtained from Sanofi-Aventis (Frankfurt, Germany). Serial dilutions of the lantibiotics and the isopropanol wash extract were prepared in half-concentrated Müller-Hinton broth. Fresh colonies of all indicator organisms were used to prepare cell suspensions of about 5×10^6 colony forming units per ml which were employed to inoculate Müller Hinton agar plates. Ten µl of the lantibiotic solutions were spotted onto the indicator plates. The highest dilution yielding a clear inhibition zone on the lawn was detected by visual inspection after incubation overnight.

Test [2] concerns S. aureus LT440/09 (cMRSA). The test is described as above. To be noted: S. aureus LT440/09 (cMRSA) versus S. aureus SG511 (MSSA); serial dilutions in half-concentrated Müller-Hinton broth, 10 µl spotted on Müller Hinton agar lawn, overnight; lichenicidin as isopropanol wash extract. The format is cell-based, Staphylococcus aureus. The procedure: as §1

Where no end group is shown, it is not given here.

For nisin, the results for the “minimum inhibitory concentration on agar plates, fold higher than against S. aureus SG511” value in test [1] and in test [2] were 1.83±0.41 fold and 2.67±1.03 fold, respectively.

“mersacidin: lantibiotic obtained from Sanofi-Aventis (CTFTLPGGGGVCTLTSECIC; also: lantibiotic: thioether bridges, places not given here; UniProt P43683 49-68, looked up)”: the “minimum inhibitory concentration on agar plates, fold higher than against S. aureus SG511” value worked out at 4.8±1.6 fold in test [1] and 4.7±1.6 fold in test [2].
